From US11180462B2, “Microbiocidal oxadiazole derivatives” (SYNGENTA PARTICIPATIONS AG, priority 2015, dated 2021)

Assays:
[1] = test system: Phakopsora Pachyrhizi; assay: Fungicidal activity against Phakopsora pachyrhizi / soybean / leaf disc preventative (Asian soybean rust); format: in vivo; conditions: foliar, 200 ppm in the applied formulation, soybean leaf disks, compared to untreated control leaf disks, read-out: disease control
How it was run: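 Preventative soybean leaf-disc test: discs on water agar sprayed with diluted formulated compound, inoculated one day later with spores on the lower surface. Held 24–36 h dark at 20°C, 75% rh, then 12 h light/day; percent disease control versus untreated discs scored 12–14 days after application.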

[2] = test system: Glomerella lagenarium (Colletotrichum lagenarium); assay: Fungicidal activity against Glomerella lagenarium (Colletotrichum lagenarium) liquid culture / cucumber / preventative (anthracnose); format: cell-based; conditions: Colletotrichum orbiculare; 20 ppm in the applied formulation; liquid culture (PDB), growth inhibition measured photometrically after 3 to 4 days; compared to untreated control; read-out: disease control
How it was run: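 Photometric read-out of fungal growth after 2–7 days, expressed as percent antifungal activity versus untreated check. Cryo-stored conidia in PDB; compound at 20 ppm; dark, 24 °C, 96% RH.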

[3] = test system: Puccinia recondita f. Sp. Tritici; assay: Fungicidal activity against Puccinia recondita f. sp. tritici / wheat / leaf disc curative (brown rust); format: in vivo; conditions: foliar, 24 h, 200 ppm in the applied formulation, wheat leaf segments, curative (applied 1 day after inoculation), compared to untreated control leaf disks, read-out: disease control
How it was run: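 Curative leaf-segment test: compound diluted in water applied 1 day after spore inoculation of cv. Kanzler wheat segments on agar. Conditions 19° C, 75% RH, 12 h/12 h light cycle. Read-out: % disease control relative to untreated check, 6 to 8 days after application.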

[4] = test system: Puccinia recondita f. Sp. Tritici; assay: Fungicidal activity against Puccinia recondita f. sp. tritici / wheat / leaf disc preventative (brown rust); format: in vivo; conditions: foliar, 200 ppm in the applied formulation, wheat leaf segments, preventative, compared to untreated control leaf disks, read-out: disease control
How it was run: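 Compound application precedes infection: segments of wheat cv. Kanzler, sprayed at 200 ppm, are inoculated with a spore suspension after 1 day. Incubation is at 19° C. with 75% relative humidity and 12 h light/12 h darkness, and control versus untreated leaves is rated 7 to 9 days post-application.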

COCCC(=O)N(Cc1ccc(-c2noc(C(F)(F)F)n2)cc1)CC1CC1 [Compound 1.217, N-(cyclopropylmethyl)-3-melhoxy-N-[[4-[5-(trifluoromethyl)-1,2,4-oxadiazol-3-yl]phenyl]methyl]-propanamide]
≥ 80%: pest or weed control at 200 ppm [1] | inhibition of growth at 20 ppm [2] | pest or weed control at 200 ppm [3] | pest or weed control at 200 ppm [4]

COC(C)C(=O)N(O)Cc1ccc(-c2noc(C(F)(F)F)n2)cc1 (centres unmarked) [Compound 1.772, N-hydroxy-2-methoxy-N-[[4-[5-(trifluoromethyl)-1,2,4-oxadiazol-3-yl]phenyl]methyl]-propanamide]
≥ 80%: pest or weed control at 200 ppm [1] | inhibition of growth at 20 ppm [2] | pest or weed control at 200 ppm [3] | pest or weed control at 200 ppm [4]

C#CCN(Cc1ccc(-c2noc(C(F)(F)F)n2)cc1)C(=O)CC [Compound 1.185, N-prop-2-ynyl-N-[[4-[5-(trifluoromethyl)-1,2,4-oxadiazol-3-yl]phenyl]methyl]-propanamide]
≥ 80%: pest or weed control at 200 ppm [1] | inhibition of growth at 20 ppm [2] | pest or weed control at 200 ppm [3] | pest or weed control at 200 ppm [4]

N#CCC(=O)N(Cc1ccc(-c2noc(C(F)(F)F)n2)cc1)CC1CC1 [Compound 1.243, 2-cyano-N-(cyclopropylmethyl)-N-[[4-[5-(trifluoromethyl)-1,2,4-oxadiazol-3-yl]phenyl]methyl]-acetamide]
≥ 80%: pest or weed control at 200 ppm [1] | inhibition of growth at 20 ppm [2] | pest or weed control at 200 ppm [3] | pest or weed control at 200 ppm [4]

C#CCN(Cc1ccc(-c2noc(C(F)(F)F)n2)cc1)C(=O)CC1CC1 [Compound 1.167, 2-cyclopropyl-N-prop-2-ynyl-N-[[4-[5-(trifluoromethyl)-1,2,4-oxadiazol-3-yl]phenyl]methyl]-acetamide]
≥ 80%: pest or weed control at 200 ppm [1] | inhibition of growth at 20 ppm [2] | pest or weed control at 200 ppm [3] | pest or weed control at 200 ppm [4]

CON(Cc1ccc(-c2noc(C(F)(F)F)n2)cc1)C(=O)N1CCCC1 [Compound 3.60, N-methoxy-N-[[4-[5-(trifluoromethyl)-1,2,4-oxadiazol-3-yl]phenyl]methyl]-pyrrolidine-1-carboxamide]
≥ 80%: pest or weed control at 200 ppm [1] | inhibition of growth at 20 ppm [2] | pest or weed control at 200 ppm [3] | pest or weed control at 200 ppm [4]

CCC(COC)C(=O)N(Cc1ccc(-c2noc(C(F)(F)F)n2)cc1)C(C)C (centres unmarked) [Compound 1.680, N-isopropyl-2-(methoxymethyl)-N-[[4-[5-(trifluoromethyl)-1,2,4-oxadiazol-3-yl]phenyl]methyl]-butanamide]
≥ 80%: pest or weed control at 200 ppm [1] | inhibition of growth at 20 ppm [2] | pest or weed control at 200 ppm [3] | pest or weed control at 200 ppm [4]

CON(Cc1ccc(-c2noc(C(F)(F)F)n2)c(F)c1F)C(=O)C1CCCO1 (centres unmarked) [Compound 1.577, N-[[2,3-difluoro-4-[5-(trifluoromethyl)-1,2,4-oxadiazol-3-yl]phenyl]methyl]-N-methoxy-tetrahydrofuran-2-carboxamide]
≥ 80%: pest or weed control at 200 ppm [1] | inhibition of growth at 20 ppm [2] | pest or weed control at 200 ppm [3] | pest or weed control at 200 ppm [4]

CON(Cc1ccc(-c2noc(C(F)(F)F)n2)cc1)C(=O)CCCCC(F)(F)F [Compound 1.53, 6,6,6-trifluoro-N-methoxy-N-[[4-[5-(trifluoromethyl)-1,2,4-oxadiazol-3-yl]phenyl]methyl]-hexanamide]
≥ 80%: pest or weed control at 200 ppm [1] | inhibition of growth at 20 ppm [2] | pest or weed control at 200 ppm [3] | pest or weed control at 200 ppm [4]

CCCN(Cc1ccc(-c2noc(C(F)(F)F)n2)cc1)C(=O)N(C)OC [Compound 3.30, 1-methoxy-1-methyl-3-propyl-3-[[4-[5-(trifluoromethyl)-1,2,4-oxadiazol-3-yl]phenyl]methyl]urea]
≥ 80%: pest or weed control at 200 ppm [1] | inhibition of growth at 20 ppm [2] | pest or weed control at 200 ppm [3] | pest or weed control at 200 ppm [4]

CC(C)(CCl)C(=O)N(Cc1ccc(-c2noc(C(F)(F)F)n2)cc1)C1CC1 [Compound 1.110, 3-chloro-N-cyclopropyl-2,2-dimethyl-N-[[4-[5-(trifluoromethyl)-1,2,4-oxadiazol-3-yl]phenyl]methyl]-propanamide]
≥ 80%: pest or weed control at 200 ppm [1] | inhibition of growth at 20 ppm [2] | pest or weed control at 200 ppm [3] | pest or weed control at 200 ppm [4]

CCC(C)C(=O)N(Cc1ccc(-c2noc(C(F)(F)F)n2)cc1)OC (centres unmarked) [Compound 1.48, N-methoxy-2-methyl-N-[[4-[5-(trifluoromethyl)-1,2,4-oxadiazol-3-yl]phenyl]methyl]-butanamide]
≥ 80%: pest or weed control at 200 ppm [1] | inhibition of growth at 20 ppm [2] | pest or weed control at 200 ppm [3] | pest or weed control at 200 ppm [4]

CC=CCC(=O)N(Cc1ccc(-c2noc(C(F)(F)F)n2)cc1)C1CC1 [Compound 1.114, N-cyclopropyl-N-[[4-[5-(trifluoromethyl)-1,2,4-oxadiazol-3-yl]phenyl]methyl]pent-3-enamide]
≥ 80%: pest or weed control at 200 ppm [1] | inhibition of growth at 20 ppm [2] | pest or weed control at 200 ppm [3] | pest or weed control at 200 ppm [4]

CCON(Cc1ccc(-c2noc(C(F)(F)F)n2)cc1)C(=O)N(C)C [Compound 3.28, 1-ethoxy-3,3-dimethyl-1-[[4-[5-(trifluoromethyl)-1,2,4-oxadiazol-3-yl]phenyl]methyl]urea]
≥ 80%: pest or weed control at 200 ppm [1] | inhibition of growth at 20 ppm [2] | pest or weed control at 200 ppm [3] | pest or weed control at 200 ppm [4]

CCON(Cc1ccc(-c2noc(C(F)(F)F)n2)cc1)C(=O)N(C)OC [Compound 3.7, 1-ethoxy-3-methoxy-3-methyl-1-[[4-[5-(trifluoromethyl)-1,2,4-oxadiazol-3-yl]phenyl]methyl]urea]
≥ 80%: pest or weed control at 200 ppm [1] | inhibition of growth at 20 ppm [2] | pest or weed control at 200 ppm [3] | pest or weed control at 200 ppm [4]

C=CCN(Cc1ccc(-c2noc(C(F)(F)F)n2)cc1)C(=O)CCC [Compound 1.485, N-allyl-N-[[4-[5-(trifluoromethyl)-1,2,4-oxadiazol-3-yl]phenyl]methyl]-butanamide]
≥ 80%: pest or weed control at 200 ppm [1] | inhibition of growth at 20 ppm [2] | pest or weed control at 200 ppm [3] | pest or weed control at 200 ppm [4]

CCC(C)C(=O)N(Cc1ccc(-c2noc(C(F)(F)F)n2)cc1)C(C)C (centres unmarked) [Compound 1.678, N-isopropyl-2-methyl-N-[[4-[5-(trifluoromethyl)-1,2,4-oxadiazol-3-yl]phenyl]methyl]-butanamide]
≥ 80%: pest or weed control at 200 ppm [1] | inhibition of growth at 20 ppm [2] | pest or weed control at 200 ppm [3] | pest or weed control at 200 ppm [4]

CCN(Cc1ccc(-c2noc(C(F)(F)F)n2)cc1)C(=O)C(C)OC (centres unmarked) [Compound 1.512, N-ethyl-2-methoxy-N-[[4-[5-(trifluoromethyl)-1,2,4-oxadiazol-3-yl]phenyl]methyl]-propanamide]
≥ 80%: pest or weed control at 200 ppm [1] | inhibition of growth at 20 ppm [2] | pest or weed control at 200 ppm [3] | pest or weed control at 200 ppm [4]

CC(C)C(=O)N(Cc1ccc(-c2noc(C(F)(F)F)n2)cc1)CC(F)(F)F [Compound 1.689, 2-methyl-N-(2,2,2-trifluoroethyl)-N-[[4-[5-(trifluoromethyl)-1,2,4-oxadiazol-3-yl]phenyl]methyl]-propanamide]
≥ 80%: pest or weed control at 200 ppm [1] | inhibition of growth at 20 ppm [2] | pest or weed control at 200 ppm [3] | pest or weed control at 200 ppm [4]

CC(C)C(=O)N(Cc1ccc(-c2noc(C(F)(F)F)n2)cc1)CC1CC1 [Compound 1.206, N-(cyclopropylmethyl)-2-methyl-N-[[4-[5-(trifluoromethyl)-1,2,4-oxadiazol-3-yl]phenyl]methyl]-propanamide]
≥ 80%: pest or weed control at 200 ppm [1] | inhibition of growth at 20 ppm [2] | pest or weed control at 200 ppm [3] | pest or weed control at 200 ppm [4]
